Reference: US7635467B2, “Mammalian multipotent stem cells and compositions, methods of preparation and methods of administration thereof” (The Board of Trustees of the University of Illinois, priority 2002, dated 2009)
Entries after “also recorded” stand apart in the source; their conditions may differ.

How the values were obtained:
human MNSCs [1] = assay: Differentiation of human MNSCs treated with recombinant sAPP, serum-free conditions; format: cell-based
Description: To investigate whether 22C11-induced inhibition of human MNSC differentiation occurs through the sequestering of sAPP or by blocking the N-terminal domain of APP on the membrane of differentiating cells, human MNSCs were treated with exogenous sAPP. Recombinant human sAPP was produced in yeast, which contains 95% sAPP695T (ending at amino acid 505 of 695) and 5% sAPP695.
The cell population of sAPP-treated human MNSCs at 5 DIV under the serum-free differentiation condition was also characterized by double immunofluorescence labeling of GFAP and bIII tubulin (FIG. 29). Treatment with sAPP dose dependently (25, 50, 100 ng/ml) increased the population of GFAP positive cells from an average of 45% in controls (no sAPP) to an average of 83% using the highest concentration of sAPP (100 ng/ml at 5 DIV).

human MNSCs [2] = assay: Exposure of human MNSC cultures to recombinant reelin; format: cell-based
Source text: The cell cluster is composed of undifferentiated cultured cells with migrating and differentiating cells forming the leading outer processes.

human MeSCs = assay: Co-culture of BrdU-treated human MeSCs with differentiated NSCs, immunocytochemistry for bIII-tubulin and GFAP; format: cell-based; conditions: MeSCs treated with 10 μM BrdU for 5 days; seven days post-coculture
[3] = tested on: Genomic DNA from human MeSCs; assay: Methylation-sensitive restriction enzyme (HpaII) digestion of genomic DNA from BrdU-treated MeSCs; conditions: 0, 1 and 10 μM BrdU for 72 hr; dose-dependent

With “sAPP: Recombinant human sAPP produced in yeast, contains 95% sAPP695T (ending at amino acid 505 of 695) and 5% sAPP695” the “population of GFAP positive cells” value (human MNSCs [1]; 100 ng/ml at 5 DIV, serum-free, 45% in controls) was 83%, the “bIII-tubulin-positive neurons in total population of differentiated human MNSCs” value (human MNSCs [1]; highest concentration of sAPP, 5 DIV, serum-free, 51% in controls) was 13% and the “differentiation pattern (GFAP / bIII-tubulin staining) compared to control” value (human MNSCs [1]; low doses of sAPP (e.g., 25 ng/ml), 5 DIV, serum-free) was “increased glial (red) and neuronal (green) differentiation”. The “TUNEL signal in human MNSCs” value (human MNSCs [1]; sAPP treatment) was “did not increase the TUNEL signal” and the “differentiation of human MNSCs” value (human MNSCs [1]; serum-free differentiation conditions, 25, 50 and 100 ng/ml, 5 days, dose-dependent) was “differentiated human MNSCs; also recorded: increased the differentiation”.
In the case of “recombinant reelin: large extracellular matrix (ECM) protein of approximately 400 kDa”, the “mobility of cells in the cluster” value (human MNSCs [2]; addition of recombinant reelin to NSCs in culture) is reported as “increased mobility of cells” and the “behaviour of processes of differentiating human MNSC cultures” value (human MNSCs [2]; exposure to recombinant reelin) is reported as “immediately retract their processes back to the cell cluster”.
With `O=c1[nH]c(=O)n([C@H]2C[C@H](O)[C@@H](CO)O2)cc1Br` [BrdU, 5-bromo-2-deoxyuridine] the “GFAP-immunopositive large flattened multipolar cells, of total cells” value (human MeSCs) was “approximately 60%”, the “bIII-tubulin immunopositive small bipolar and unipolar cells, of total cells” value (human MeSCs) was “approximately 40%” and the “HpaII digestion of genomic DNA (size of DNA fragments)” value [3] was “prevented enzyme digestion; also recorded: prevents methylation-sensitive restriction enzyme digestion of DNA”.
